# Where “and” joins values, the source holds several entries; their conditions need not be identical. Identical values can stand only once.
# Tests used:
# [1] = Serum exposure after intravesical chronic treatment in mouse; settings: intravesical, LLOQ 0.5 ng/ml
# Procedure: Serum samples were taken at time points: day 0, 2 hours, day 1, 24 hours, and day 6, 2 hours.
# Samples were evaporated and re-suspended in 70 microliters of acetonitrile/methanol 1:1.
# HLA-DR+/CD20+ B cells = assay: FACS analysis of B cell activation in whole blood; format: cell-based, human; settings: 24 hours; 2 and 10 uM; three donors
# Procedure: The FACS staining was performed according to the manufacturer's instructions. Lysis of red blood cells was performed before FACS staining in order to minimize auto-florescence. To include as many B cells and DCs in the study as possible the FACS analyses were performed on 500,000 cells in total for each staining. […] The results of the individual analysis were present as Mean Fluorescence Intensity
# The analysis of expression of the activation marker CD40 on B cells was made on double positive HLA-DR (MHC class II) (P4 gate) and CD20 cells (B cell marker) (P8 gate).
# [2] = tested on: recombinant protein antigens from Plasmodium falciparum and Mycobacterium ulcerans; assay: Pilot immunization study with adjuvanted protein antigens in mice; format: in vivo
# Procedure: A pilot immunization study was conducted using Compound A and SC12 adjuvanted protein antigens. The immunization experiments were performed with two recombinant proteins expressed in E. coli. One antigen was derived from the malaria parasite Plasmodium falciparum and the other one from Mycobacterium ulcerans, which cause the ulcerative skin disease Buruli ulcer.
# [3] = Heat stability of solid samples at 80° C. (HPLC); format: physicochemical; settings: solid sample
# Procedure: Solid samples of each compound were maintained at 80° C. and analyzed by HPLC.
# [4] = tested on: AY-27 rat bladder cancer cell-line; settings: in vivo
# [5] = tested on: AY-27 rat bladder cancer cell-line; settings: day 12
# [6] = tested on: Cutaneous Squamous Cell Carcinoma (SCC) cell lines SCL-I, SCL-II, SCC-12, SCC-13; assay: Proapoptotic and cytotoxic effects on cutaneous SCC cell lines (real-time cell analysis, microscopy); format: cell-based, human
# Procedure: SCC cells are grown under standard conditions (10% FBS).
# Time and dose dependency of effects on total cell numbers have been investigated by real-time cell analysis, which is based on continuous monitoring of electric conductance in microtiter wells (E-plates, Roche), which corresponds to the cell numbers. […] For these assays 4 cell lines should be used to obtain a representative overview on the effects on SCC cells.
# human PBMCs = assay: IL-6 secretion in human PBMCs, two batches of Compound A and SC12; format: cell-based; settings: 5 months storage in DMSO at 4° C.
# Procedure: PBMCs were purified from two donors and plated into 96 well plates at 2×10^5 cells/well in RPMI media including human 2% heat inactivated AB serum, glutamine, Pen-strep and R-mercapto-ethanol. […] The conditioned media was removed for ELISA analyses for IL-6, and the EC50 value determined for each compound and each batch.
# All compounds were tested in four concentrations (10-1-0, 1-0.01 micromolar).
# Concentrations of IL-6 were determined by ELISA from R&D Systems using the Microsoft Excel software. The results were analyzed in Graph Pad Prism in order to prepare dose-response curves, and for determination of EC50 values.
# [7] = tested on: HLA-DR+/CD11c-/CD123+ pDCs; assay: FACS analysis of plasmacytoid DC activation in whole blood; format: cell-based, human; settings: 24 hours; 0.1 and 0.5 uM; three donors
# Procedure: A flow cytometric analysis was performed on whole blood from three donors after treatment with two compound concentrations for 24 h. The FACS analysis for donor 1 and donor 2 was made on another day than donor 3. The compound concentrations were as follows:
# The FACS analysis was used to identify whether the test compounds could induce activation of B cells, and two different subsets of dendritic cells, namely the myeloid CD11c+/CD123− DCs and the plasmacytoid CD11c−/CD123+ DCs. The following markers were studied to identify the activation status of the different subsets:
# The FACS staining was performed according to the manufacturer's instructions. Lysis of red blood cells was performed before FACS staining in order to minimize auto-florescence. To include as many B cells and DCs in the study as possible the FACS analyses were performed on 500,000 cells in total for each staining. A P1 gate was set only to include relevant cells on FSC vs. SSC (see FIGS. 12-15). The results of the individual analysis were present as Mean Fluorescence Intensity
# The analysis of pDCs was based on HLA-DR+/CD11c−/CD123+ cells, thus all analyzed cells were included in the HLA-DR+ (P3) gate and CD11c−/CD123+ (Q1) gate. (FIGS. 13-15).
# [8] = Intravenous pharmacokinetics in the mouse; settings: IV bolus 1 mg/kg; for Plasma concentration Mean ± S.D.: LLOQ: 5 ng/ml
# Procedure: An IV bolus was administered into the caudal vein at a dose of 1 mg/kg in 5 ml. The compound weight was 2.08/10.04 ml. 24 mice were studied. Sampling was obtained by exsanguination under anesthesia, at 5, 15, 30, 60, 240, and 480 minutes, and at 24 hours. […] Animals were sacrificed using ethyl ether at the conclusion of the experiment.
# Sample preparation: In a Sirocco filter plate, 100 microliters of plasma were added to 300 microliters of ACN/MeOH spiked with 5 microliters of IS (IV298 10 micrograms per ml) plus 10 microliters of 5% H3PO4. The plate was shaken for 10 minutes at 80 rpm and then filtered under vacuum for 5 minutes.
# Analytical method: LC/MS/MS: Premiere XE, Eluent: water (A) MeOH (B) plus 0.1% HCOOH gradient. 15% B to 100% B from 0.1 to 0.5, then isocratic 100% B up to 1.5 minutes, flow 0.8 ml/min; Column Acquity UPLC BEH C18 1.7 microm 2.1×50 mm, injection volume of 5 microliters in a T column at 50° C. ESI positive, MRM, Extractor 5V; Capillary 3.5 kV; T source 115° C.; T desolv. 450° C.
# Data analysis: Non-compartmental analysis WinNonlin 5.1; linear trapezoidal, uniform weight.
# [9] = Single dose intravenous toxicity study in rats; format: in vivo, Sprague Dawley rat
# Procedure: An additional group, similarly composed, received the vehicle alone and acted as a control. […] Clinical signs were limited to piloerection and reduced activity, observed on the day of dosing.
# In the main phase, 5 male and 5 female animals were dosed at 90 mg/kg and observed for a period of 14 days. A second group, similarly constituted, received the vehicle alone and acted as control. […] In addition, one male and one female dosed at 90 mg/kg were found dead on Day 2 of the study. Twitches, ataxia, piloerection, reduced activity and hunched posture were the major signs observed in animals before death. […] Piloerection was observed up to Day 3 of the study. A second group, similarly composed, was dosed at 80 mg/kg.
smiles,measurement,setting,value
CCCCCCCCCCCC(=O)OCC(COP(=O)(O)OCCNC(=O)c1ccc(Cn2c(=O)[nH]c3c(N)nc(OCCOC)nc32)cc1)OC(=O)CCCCCCCCCCC (stereo not shown) [SC12],"SC12 levels in serum, Mean ± S.D.","[1]; Day 0, 2 hours",0.5 ± 0.5 ng/mL
same,"SC12 levels in serum, individual mice","[1]; Day 0, 2 hours",<LLOQ (2×) and 1.0 ng/ml and 0.5 ng/ml
same,"SC12 levels in serum, Mean ± S.D.","[1]; Day 1, 24 hours",<LLOQ
same,"SC12 levels in serum, individual mice","[1]; Day 1, 24 hours",<LLOQ
same,"SC12 levels in serum, Mean ± S.D.","[1]; Day 6, 2 hours",<LLOQ
same,"SC12 levels in serum, individual mice","[1]; Day 6, 2 hours",<LLOQ
same,"CD40 expression (MFI, in words)",HLA-DR+/CD20+ B cells,induced CD40 expression in donor 1 and donor 2 in all tested concentrations
same,local side effects,[2]; three s.c. immunizations with 10 nMol adjuvant,No local side effects
same,IgG responses against the target antigens,"[2]; three s.c. immunizations, 20 micrograms antigen mixed with 10 nMol adjuvant, after the third immunization",developed IgG responses
same,HPLC purity,[3]; After 2 hrs at 80° C.,90% HPLC
same,HPLC purity,[3]; After 22 hrs at 80° C.,88% HPLC
same,HPLC purity,[3]; t = 0,90% HPLC
same,signs of toxicity (in words),[4],No signs of toxicity
same,Range of weight of the rat bladders,"[5]; 0.5 ml intravesical instillation (Imiquimod 0.1%, SC12 0.38%) on day 2 and 5",0.0780-0.1422 grams
same,Tumor free (% of rats),[5]; of 14 rats per group,42.9%
same,Tumor free (number of rats),[5]; of 14 rats per group,6
same,pT2 Tumor (% of rats),[5]; of 14 rats per group,50.0%
same,pT2 Tumor (number of rats),[5]; of 14 rats per group,7
same,pTa Tumor (% of rats),[5]; of 14 rats per group,7.1%
same,pTa Tumor (number of rats),[5]; of 14 rats per group,1
same,morphological changes (microscopy),"[6]; SCC cells, time of treatment 3d, 120 microM","cell detachment, morphological changes and inhibition of proliferation"
same,"cell numbers (real-time cell analysis, electric conductance)",[6]; cutaneous SCC cell lines,reduced cell numbers
same,activity after storage (in words),human PBMCs,have not lost activity
same,"CD80 expression in pDCs (MFI, in words)",[7],induces a slightly higher CD80 expression than compound A
same,"CD86 expression in pDCs (MFI, in words)",[7],tendency to induce higher CD86 expression than compound A
same,adverse behavioral effects,[8],No adverse behavioral effects
same,Cl,[8]; plasma,77.7 mL/min/kg
same,Clast,[8]; plasma,6 ng/mL
same,MRT,[8]; plasma,32 min
same,T ½,[8]; plasma,130 min
same,Tlast,[8]; plasma,120 min
same,Tmax,[8]; plasma,5 min
same,Vss,[8]; plasma,2.5 L/kg
same,Plasma concentration Mean ± S.D.,[8]; 240 min,<LLOQ
same,Plasma concentration Mean ± S.D.,[8]; 480 min,<LLOQ
same,Plasma concentration Mean ± S.D.,[8]; 1440 min,<LLOQ
same,mortality,"[9]; 76 mg/kg i.v., preliminary phase",No mortality occurred
same,mortality and clinical signs,"[9]; 80 mg/kg i.v., main phase",No mortality occurred and no clinical signs were recorded
same,clinical signs,"[9]; 85 mg/kg i.v., preliminary phase",Piloerection
same,mortality and signs of toxicity,"[9]; 90 mg/kg i.v., main phase",induced mortality or significant signs of toxicity
same,mortality,"[9]; 90 mg/kg i.v., preliminary phase",No mortality occurred
same,mortality,"[9]; 100 mg/kg i.v., preliminary phase",Both animals died at dosing
same,maximum tolerated dose,"[9]; single intravenous administration, rat",80 mg/kg

# Reference: US9180183B2, “Phospholipid drug analogs” (Telormedix SA, priority 2010, dated 2015)
